Data on 19 molecules can be found in patent US20240308995A1, “O-GLYCOPROTEIN-2-ACETAMIDO-2-DEOXY-3-D-GLUCOPYRANOSIDASE INHIBITORS” (BIOGEN MA INC., priority 2018, published 2024).

Like-named read-outs stand apart in the source and are kept apart here. Marks after values point to notes of the source that are not given here.

Data set [1] addresses Recombinant full length human OGA enzyme (Homo sapiens (Human), UniProt O60502). In words: OGA Enzyme Inhibition Biochemical Assay. Particulars: 1 nM OGA, 100 μM 4-MUGlcNAc, pH 6.4. In a few lines: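 Full-length recombinant human OGA with fluorogenic 4-MUGlcNAc in McIlvaine buffer pH 6.4, 0.01% BSA; 90 min at room temperature, glycine pH 10 quench, fluorescence Ex 355/Em 460 nm. 10-point, 4-fold dilution from 20 μM; 4-parameter variable-slope fit.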

Data set [2] concerns the target OGA (S400 O-GLCNAC), HEK-293T cells transfected with Tau-V5 (Homo sapiens (Human), UniProt O60502). The experiment in a line: Cellular OGA-Tau MSD Assay. The class given is cell-based. In a few lines: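 HEK-293T cells transfected with OGA and Tau-V5 plasmids were treated overnight at 37° C with a 10-point, 3-fold titration from 1 uM. Lysates went onto V5-antibody MSD plates to capture Tau, probed with a Tau O-GlcNAc antibody and read by electrochemiluminescence; IC50 from a 4-parameter fit.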

The subject of another data set is P-gp (MDR1). In words: MDR1-MDCK Efflux Ratio Assay. The class given is in vitro ADME. Particulars: dog, read-out: MDR1-MDCK Efflux Ratio (B-A/A-B). Here is the method:
MDR1-MDCK cell monolayers were grown to confluence on microporous polyester membranes in 96-well Corning insert plates. The permeability assay buffer was Hanks' Balanced Salt Solution containing 10 mM HEPES at pH of 7.4. Loperamide (1 μM) was used as a positive control P-gp substrate. Propranolol and Bestatin (1 μM) were used as high and low permeability comparators, respectively. Test compounds or positive control P-gp substrate/permeability comprators were added to respective apical and basolateral chambers for bidirectional assessment of permeability. Receiver buffer (transport buffer supplemented with 1% bovine serum albumin) was added to respective receiver chambers. MDR1-MDCK cells were incubated with test compounds at 37° C. with 5% CO2 for 2 hr. Samples were collected from the donor chamber at both 0 and 120 minutes, and from the receiver chamber at 120 minutes. Test and control compound concentrations were determined using LC-MS/MS analysis. Each determination was performed in triplicate. The apparent permeability (Papp), efflux ratio and mass balance (percent recovery) were calculated as follows: [formula] where: dCr/dt is the cumulative concentration in the receiver compartment versus time in μM s^−1 Vr is the volume of the receiver compartment in cm^3 Vd is the volume of the donor compartment in cm^3 A is the area of the insert (0.143 cm^2 for 96-well insert) CE is the estimated experimental concentration (Time=0) of the dosing solution Cr^final is the concentration of the receiver at the end of the incubation period Cd^final is the concentration of the donor at the end of the incubation period.

Data set [3] can be described thus: Rat Liver Microsome Stability Assay. The format is in vitro ADME.
[4] abbreviates: HEK-293T cells, Tau-S400-GlcNAc MSD readout.
Where [5] appears, read: MDCK-MDR1, pH 7.4, MDR1-MDCK cells, 2 hr, pH 7.4.
Setting [6] is: rat liver microsomes, 1 uM compound.
Setting [7] is: MDCK-MDR1, pH 7.4, repeated assay, value marked with asterisk (*).
[8] abbreviates: repeated assay, value marked with asterisk (*).

Chain of OGA (S400 O-GLCNAC), HEK-293T cells transfected with Tau-V5 (O60502 whole entry): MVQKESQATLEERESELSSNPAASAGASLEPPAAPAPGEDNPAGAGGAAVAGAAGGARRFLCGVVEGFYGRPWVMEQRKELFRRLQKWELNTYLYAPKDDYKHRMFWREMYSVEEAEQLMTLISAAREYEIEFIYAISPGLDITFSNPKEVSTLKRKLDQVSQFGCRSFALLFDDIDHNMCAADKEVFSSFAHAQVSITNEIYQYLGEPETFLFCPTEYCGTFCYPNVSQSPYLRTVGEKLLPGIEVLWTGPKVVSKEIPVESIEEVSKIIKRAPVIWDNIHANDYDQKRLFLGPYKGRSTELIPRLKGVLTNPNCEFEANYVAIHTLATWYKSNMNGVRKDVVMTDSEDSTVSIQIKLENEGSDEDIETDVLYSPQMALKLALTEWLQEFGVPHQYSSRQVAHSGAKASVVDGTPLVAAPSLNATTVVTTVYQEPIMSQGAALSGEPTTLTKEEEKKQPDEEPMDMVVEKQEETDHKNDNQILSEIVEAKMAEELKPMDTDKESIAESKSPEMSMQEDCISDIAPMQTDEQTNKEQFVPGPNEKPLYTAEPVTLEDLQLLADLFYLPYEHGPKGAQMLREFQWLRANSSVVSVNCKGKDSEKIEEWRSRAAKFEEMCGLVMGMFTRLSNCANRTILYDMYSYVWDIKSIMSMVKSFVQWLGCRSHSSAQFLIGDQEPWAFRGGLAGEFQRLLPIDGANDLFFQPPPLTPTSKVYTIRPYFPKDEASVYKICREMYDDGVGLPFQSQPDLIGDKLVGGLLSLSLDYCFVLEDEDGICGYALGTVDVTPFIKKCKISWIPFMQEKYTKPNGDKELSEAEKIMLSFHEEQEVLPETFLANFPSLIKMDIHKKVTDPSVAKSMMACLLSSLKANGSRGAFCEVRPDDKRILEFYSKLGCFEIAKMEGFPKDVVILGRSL
Chain of Recombinant full length human OGA enzyme (O60502 whole entry): as above

For `CC(=O)Nc1ncc(CN2C[C@@H](Oc3ccc(F)cn3)C[C@@H]2C)s1` [Example 1-9, N-(5-(((2S,4S)-4-((5-fluoropyridin-2-yl)oxy)-2-methylpyrrolidin-1-yl)methyl)thiazol-2-yl)acetamide], the half-maximal inhibitory concentration (IC50) came to 39 nM in data set [1] and 32 nM in data set [2] (setting [4]). Further, the efflux ratio at 2 h with P-gp (MDR1) (setting [5]) was found to be 1.9. The “RLM % Qh (%)” value in data set [3] (setting [6]) stood at 87%.
For the molecule `CC(=O)Nc1ncc(CN2C[C@H](Oc3ccc(F)cn3)C[C@H]2C)s1` [Example 1-10, N-(5-(((2R,4R)-4-((5-fluoropyridin-2-yl)oxy)-2-methylpyrrolidin-1-yl)methyl)thiazol-2-yl)acetamide], the concentration for half-maximal inhibition (IC50) was found to be 28 nM in data set [1] and 115 nM in data set [2] (setting [4]). In addition, in the data set on P-gp (MDR1) (setting [5]), the efflux ratio at 2 h stood at 1.9. Besides, the “RLM % Qh (%)” value in data set [3] (setting [6]) is 76%.
With `CC(=O)Nc1ncc(CN2C[C@H](Oc3ccc(F)cn3)C[C@@H]2C)s1` [Example 1-11, N-(5-(((2S,4R)-4-((5-fluoropyridin-2-yl)oxy)-2-methylpyrrolidin-1-yl)methyl)thiazol-2-yl)acetamide], the IC50 was less than 1 nM in data set [1] and 3 nM in data set [2] (setting [4]). Also, the efflux ratio at 2 h in the data set with P-gp (MDR1) (setting [5]) worked out at 1.1; in the data set on P-gp (MDR1) (setting [7]), 1.9. For the same molecule, the “RLM % Qh (%)” value in data set [3] (setting [6]) was found to be 73%.
As to `COc1cncc(O[C@@H]2C[C@H](C)N(Cc3cnc(NC(C)=O)s3)C2)n1` [Example 1-12, N-(5-(((2S,4R)-4-((6-methoxypyrazin-2-yl)oxy)-2-methylpyrrolidin-1-yl)methyl)thiazol-2-yl)acetamide], the half-maximal inhibitory concentration (IC50) in data set [1] is less than 1 nM; in data set [2] (setting [4]) it was 3 nM; in data set [2] (setting [8]), 2 nM. For the same molecule, the efflux ratio at 2 h with P-gp (MDR1) (setting [5]) turned out to be 10; with P-gp (MDR1) (setting [7]), 8.9. The “RLM % Qh (%)” value in data set [3] (setting [6]) was 97%; in data set [3] (setting [8]), 98* %.
Take `CC(=O)Nc1ncc(CN2C[C@H](Oc3ccc(C(F)F)cn3)C[C@@H]2C)s1` [Example 1-13, N-(5-(((2S,4R)-4-((5-(difluoromethyl)pyridin-2-yl)oxy)-2-methylpyrrolidin-1-yl)methyl)thiazol-2-yl)acetamide]: the IC50 in data set [1] worked out at 1.1 nM; in data set [2] (setting [4]), 2 nM. In addition, the efflux ratio at 2 h in the data set with P-gp (MDR1) (setting [5]) came out at 2.4. In addition, the “RLM % Qh (%)” value in data set [3] (setting [6]) worked out at 90%.
On to `CC(=O)Nc1ncc(CN2C[C@H](Oc3ccccn3)C[C@@H]2C)s1` [Example 1-14, N-(5-(((2S,4R)-2-methyl-4-(pyridin-2-yloxy)pyrrolidin-1-yl)methyl)thiazol-2-yl)acetamide], for which the half-maximal inhibitory concentration (IC50) turned out to be 1.3 nM in data set [1] and 5 nM in data set [2] (setting [4]). Besides, the efflux ratio at 2 h in the data set on P-gp (MDR1) (setting [5]) came to 2.9. Also, in data set [3] (setting [6]), the “RLM % Qh (%)” value came out at 68%.
Consider `CC(=O)Nc1ncc(CN2C[C@H](Oc3ccc(F)c(C)n3)C[C@@H]2C)s1` [Example 1-15, N-(5-(((2S,4R)-4-((5-fluoro-6-methylpyridin-2-yl)oxy)-2-methylpyrrolidin-1-yl)methyl)thiazol-2-yl)acetamide], for which the IC50 was less than 1 nM in data set [1] and 2 nM in data set [2] (setting [4]). Moreover, the efflux ratio at 2 h in the data set on P-gp (MDR1) (setting [5]) stood at 2.2. Besides, the “RLM % Qh (%)” value in data set [3] (setting [6]) stood at 95%.
As to `CC(=O)Nc1ncc(CN2C[C@H](Oc3ccc(C#N)cn3)C[C@@H]2C)s1` [Example 1-16, N-(5-(((2S,4R)-4-((5-cyanopyridin-2-yl)oxy)-2-methylpyrrolidin-1-yl)methyl)thiazol-2-yl)acetamide], the half-inhibitory concentration (IC50) in data set [1] is less than 1 nM; in data set [2] (setting [4]) it was 1 nM. Besides, the efflux ratio at 2 h in the data set on P-gp (MDR1) (setting [5]) came out at 9.7. In addition, the “RLM % Qh (%)” value in data set [3] (setting [6]) is recorded as 50%; in data set [3] (setting [8]) it was 51* %.
For the molecule `CC(=O)Nc1ncc(CN2C[C@H](Oc3cnc(Cl)cc3C)C[C@@H]2C)s1` [Example 1-17, N-(5-(((2S,4R)-4-((6-chloro-4-methylpyridin-3-yl)oxy)-2-methylpyrrolidin-1-yl)methyl)thiazol-2-yl)acetamide], the IC50 in data set [1] is less than 1 nM; in data set [2] (setting [4]) it was 2 nM. Also, the efflux ratio at 2 h with P-gp (MDR1) (setting [5]) came to 12; in the data set on P-gp (MDR1) (setting [7]), 12.4. Besides, the “RLM % Qh (%)” value in data set [3] (setting [6]) is 88%.
With `CC(=O)Nc1ncc(CN2C[C@H](Oc3cc(C(F)F)ncn3)C[C@@H]2C)s1` [Example 1-18, N-(5-(((2S,4R)-4-((6-(difluoromethyl)pyrimidin-4-yl)oxy)-2-methylpyrrolidin-1-yl)methyl)thiazol-2-yl)acetamide], the IC50 worked out at 2.4 nM in data set [1] and 12 nM in data set [2] (setting [4]). Besides, in the data set on P-gp (MDR1) (setting [5]), the efflux ratio at 2 h turned out to be 11.7. For the same molecule, the “RLM % Qh (%)” value in data set [3] (setting [6]) is 48%.
For the molecule `CC(=O)Nc1ncc(CN2C[C@H](Oc3ccnc(OC(F)F)c3)C[C@@H]2C)s1` [Example 1-20, N-(5-(((2S,4R)-4-((2-(difluoromethoxy)pyridin-4-yl)oxy)-2-methylpyrrolidin-1-yl)methyl)thiazol-2-yl)acetamide], the IC50 in data set [1] is less than 1 nM; in data set [2] (setting [8]), 7 nM. The efflux ratio at 2 h in the data set with P-gp (MDR1) (setting [5]) was determined as 2.9; in the data set with P-gp (MDR1) (setting [7]), 3. In addition, the “RLM % Qh (%)” value in data set [3] (setting [6]) came out at 63%.
Take `COCCOc1cc(O[C@@H]2C[C@H](C)N(Cc3sc(NC(C)=O)nc3F)C2)ncn1` [Example 1-23, N-(4-fluoro-5-(((2S,4R)-4-((6-(2-methoxyethoxy)pyrimidin-4-yl)oxy)-2-methylpyrrolidin-1-yl)methyl)thiazol-2-yl)acetamide]: the IC50 in data set [1] was less than 1 nM; in data set [2] (setting [4]) it was 3 nM. Also, the efflux ratio at 2 h in the data set with P-gp (MDR1) (setting [5]) is 7.7. The “RLM % Qh (%)” value in data set [3] (setting [6]) was found to be 31%.
For `COc1cc(O[C@@H]2CCN(Cc3sc(NC(C)=O)nc3F)C2)ncn1` [Example 1-28, (R)—N-(4-fluoro-5-((3-((6-methoxypyrimidin-4-yl)oxy)pyrrolidin-1-yl)methyl)thiazol-2-yl)acetamide] the same measures were 16 nM, 47 nM, 1.8 and 33%.
Turning to `COc1cc(O[C@H]2CCCN(Cc3sc(NC(C)=O)nc3F)C2)ncn1` [Example 1-32, (S)—N-(4-fluoro-5-((3-((6-methoxypyrimidin-4-yl)oxy)piperidin-1-yl)methyl)thiazol-2-yl)acetamide], the concentration for half-maximal inhibition (IC50) in data set [1] came out at 14 nM; in data set [2] (setting [4]) it was 32 nM. Besides, the efflux ratio at 2 h in the data set with P-gp (MDR1) (setting [5]) was 3.1. Moreover, in data set [3] (setting [6]), the “RLM % Qh (%)” value came to 83%.
For `COc1cc(O[C@@H]2CCCN(Cc3sc(NC(C)=O)nc3F)C2)ncn1` [Example 1-33, (R)—N-(4-fluoro-5-((3-((6-methoxypyrimidin-4-yl)oxy)piperidin-1-yl)methyl)thiazol-2-yl)acetamide], the IC50 in data set [1] stood at 17 nM; in data set [2] (setting [4]), 51 nM. Moreover, in the data set with P-gp (MDR1) (setting [5]), the efflux ratio at 2 h was determined as 2.9. Moreover, the “RLM % Qh (%)” value in data set [3] (setting [6]) amounted to 65%.
`COc1cc(O[C@H]2CC[C@H](C)N(Cc3sc(NC(C)=O)nc3F)C2)ncn1` [Example 1-34, N-(4-fluoro-5-(((2S,5S)-5-((6-methoxypyrimidin-4-yl)oxy)-2-methylpiperidin-1-yl)methyl)thiazol-2-yl)acetamide]: the half-maximal inhibitory concentration (IC50) in data set [1] is less than 1 nM; in data set [2] (setting [4]), 2 nM. The efflux ratio at 2 h with P-gp (MDR1) (setting [5]) came to 4.1. For the same molecule, the “RLM % Qh (%)” value in data set [3] (setting [6]) worked out at 90%.
With `COc1cc(O[C@@H]2CC[C@H](C)N(Cc3sc(NC(C)=O)nc3F)C2)ncn1` [Example 1-35, N-(4-fluoro-5-(((2S,5R)-5-((6-methoxypyrimidin-4-yl)oxy)-2-methylpiperidin-1-yl)methyl)thiazol-2-yl)acetamide], the IC50 in data set [1] was less than 1 nM; in data set [2] (setting [4]) it was 2 nM. Moreover, in the data set on P-gp (MDR1) (setting [5]), the efflux ratio at 2 h came out at 4.3. Also, in data set [3] (setting [6]), the “RLM % Qh (%)” value was 92%.
Turning to `COc1cc(O[C@@H]2C[C@@H](C)N(Cc3cnc(NC(C)=O)s3)C2)ncn1` [Example 1-38, N-(5-(((2R,4R)-4-((6-methoxypyrimidin-4-yl)oxy)-2-methylpyrrolidin-1-yl)methyl)thiazol-2-yl)acetamide], the 50% inhibitory concentration (IC50) is 250 nM in data set [1] and greater than 1000 nM in data set [2] (setting [4]). Moreover, the efflux ratio at 2 h in the data set on P-gp (MDR1) (setting [5]) was found to be 3.9. Also, in data set [3] (setting [6]), the “RLM % Qh (%)” value is given as 32%.
For `COc1cc(O[C@H]2C[C@H](C)N(Cc3cnc(NC(C)=O)s3)C2)ncn1` [Example 1-39, N-(5-(((2S,4S)-4-((6-methoxypyrimidin-4-yl)oxy)-2-methylpyrrolidin-1-yl)methyl)thiazol-2-yl)acetamide], the IC50 in data set [1] stood at 55 nM; in data set [2] (setting [4]), 30 nM. Besides, in the data set with P-gp (MDR1) (setting [5]), the efflux ratio at 2 h is 4.5. For the same molecule, in data set [3] (setting [6]), the “RLM % Qh (%)” value turned out to be 57%.
